Reference: patent US20080311169A1, “Composition Comprising Ginsenosides for Treating or Preventing Angiostenosis and Restenosis” (priority 2004, published 2008)
Read-outs that look alike come from different tables or passages of the source.

What was measured:
[1] = system: SMCs (human aortic smooth muscle cells); assay: Cell cytotoxicity, colorimetric MTT assay
Procedure: SMCs (human aortic smooth muscle cells, Cambrex, USA) were cultured in SmGM-2 BulletKit (Cambex, USA) medium containing 10% FBS (Cambrex, USA), with 100× antibiotics (Cambex, USA) added thereto, and subcultured by using 1×trypsin-EDTA (Gibco BRL, USA) with maintaining the condition of 37° C., 5% CO2.
Before confirming whether ginsenoside and red ginseng extract affect the growth of muscle cell, the cell cytotoxicity was determined as the effect of cell cytotoxicity induced by ginsenosides Rk1, Rg3, and Rg5, red ginseng extract, and the present composition in muscle cell.
The cell cytotoxicity to the sample was determined by colorimetric MTT assay (Scudiero D. A. et al., Cancer Res., 48:4827-4833, 1988). That is, the muscle cell was plated to 96 wells microtiter tissue culture plate (Falcon) by 1×10^4 cells/ml, and then each well was treated with the sample, cultured for a certain period of time, treated with MTT sample, and melted with solubilization solution when formazan was formed, and the absorbance was determined at 540 nm.

[2] = system: SMCs (human aortic smooth muscle cells); assay: Cell proliferation ELISA BrdU assay; type: cell-based; settings: for inhibition at 5 µg/mL: Homo sapiens, at the concentration of 5 μg/ml, FIGS. 3 and 4, read-out: inhibition of the growth of muscle cell; for inhibition of the growth of muscle cell (in words): absorbance 450 nm, FIGS. 3 and 4
Procedure: To determine the effects of cell proliferation by the sample, Cell proliferation ELISA BrdU assay kit (Roche, USA) was purchased and used. Cells were put into 96 wells plate, treated with the sample after cultivation, and cultured for a certain period of time. At a certain point of time, BrdU labeling solution was added into the cells, which in turn were reacted at 37° C., in 5% CO2 for 2 hr. Then, FixDenat was added thereto, and the mixture was reacted at the room temperature for 30 min. And, Anti-BrdU-POD working solution was added thereto, and the mixture was reacted at the room temperature for 1 hr and 30 min. Afterwards, substrate solution was added thereto, and the mixture was reacted at the room temperature for 20 min. The reaction was stopped by using sulphuric acid, and then the absorbance was determined at 450 nm.

[3] = MTT, absorbance 540 nm, proper concentration, FIGS. 1 and 2

Row | Structure (SMILES) | cell cytotoxicity in muscle cell [1] | inhibition at 5 µg/mL [2] | inhibition of the growth of muscle cell (in words) [2] | cell cytotoxicity in muscle cell [1, 3]
1 | CC(C)=CCC[C@](C)(O)[C@H]1CC[C@]2(C)[C@@H]1[C@H](O)C[C@@H]1[C@@]3(C)CC[C@H](O[C@@H]4O[C@H](CO)[C@@H](O)[C@H](O)[C@H]4O[C@@H]4O[C@H](CO)[C@@H](O)[C@H](O)[C@H]4O)C(C)(C)[C@@H]3CC[C@]12C [Rg3, ginsenoside Rg3] | no cell cytotoxicity was found | 50% | inhibited the growth of muscle cell | 
2 | CC(C)=CC/C=C(/C)C1CCC2(C)C1C(O)CC1C3(C)CCC(OC4OC(CO)C(O)C(O)C4OC4OC(CO)C(O)C(O)C4O)C(C)(C)C3CCC12C (centres unmarked) [Rg5, ginsenoside Rg5] |  | 50% | inhibited the growth of muscle cell | no cell cytotoxicity was found
3 | C=C(CCC=C(C)C)C1CCC2(C)C1C(O)CC1C3(C)CCC(OC4OC(CO)C(O)C(O)C4OC4OC(CO)C(O)C(O)C4O)C(C)(C)C3CCC12C (centres unmarked) [Rk1, ginsenoside Rk1] |  |  | inhibited the growth of muscle cell | no cell cytotoxicity was found
